In the assay the test system is peach aphid Myzus persicae. In words: Impairment of lipid neogenesis: 14C-acetate feeding by the sachet method, lipid extract separated by TLC. The class given is in vivo. An excerpt:
Peach aphid Myzus persicae larvae or adults were fed for two days with nutrient solutions with and without one of the identified ACCase inhibitors, using the sachet method (Nauen et al. 1996).
Thereafter, the animals were collected and homogenized in organic solvent using a pestle and mortar. The organic phase was cleansed of water-soluble constituents by repeatedly extracting it by shaking with aqueous solution, and the solvent was then evaporated. The pellet which remained was taken up in a little solvent and separated by thin-layer chromatography (TLC). The lipids which were separated were stained with amido black. ^14C-acetate which was incorporated into the lipids was detected by autoradiography after an exposure time of 2-3 days. To quantify the ^14C-incorporation into lipids, the bands in question were scraped out after staining, dissolved, and the activity was determined in a scintillation counter. […] Thus, no de novo lipid synthesis from acetate has taken place. […] It can be seen clearly that increasing inhibitor concentrations halt the de-novo lipid biosynthesis.
The mobile phase used for the TLC chromatography was n-hexane: diethyl ether: glacial acetic acid (60:45:1).

Regarding `COC1CCC2(CC1)NC(=O)C(c1c(C)cc(C)c(C)c1C)=C2O` (centres unmarked) [I-A, 4-hydroxy-8-methoxy-3-(2,3,4,6-tetramethylphenyl)-1-azaspiro[4,5]dec-32-en-2-one], the “radiolabeled 14C-acetate incorporated into lipids during de-novo synthesis (autoradiograph of TLC plate)” value (fed for two days, exposure time 2-3 days, FIG. 1b, treated vs control aphids) is listed as “no labeled lipids are present”. Also, the “lipid composition and lipid content (lipid status after acetate feeding, TLC stained with amido black)” value (larvae or adults fed for two days with nutrient solution with vs without active ingredient, FIG. 1a lanes 4-6 vs 1-3) is listed as “No significant differences”.

(Values after US20040161757A1, “Use of acetyl-coa carboxylase for identifying compounds that have an insecticidal effect” (priority 2000, published 2004).)
